Results: article PMC4965013, “Open Source Drug Discovery with the Malaria Box Compound Collection for Neglected Diseases and Beyond” (PLoS Pathogens, 2016)

What was measured:
[1] = tested on: P. falciparum 3D7 trophozoites; assay: Metabolomic fingerprint profiling LC-MS; format: cell-based, Plasmodium falciparum; design: UDP-D-glucose / ADP-D-glucose: unit not given here; conditions: for Acetyllysine / N-acetyl-L-ornithine / N-carbamoyl-L-aspartate / NADPH / dAMP / dCMP / dTDP / dTMP / dTTP / dihydroorotate / orotate / DLH / DLS/SDL/SID / PD / PEE / PVNF / 3-phosphoglycerate / ADP-D-glucose / ATP / CDP / D-sedoheptulose-1/7-phosphate / FAD / GMP / NAD+ / NADP+ / Octoluse Bisphosphate / Pyroglutamic acid / UDP-D-glucose / UDP-D-glucuronate / UDP-N-acetyl-glucosamine / UDP / UMP / UTP / a-ketoglutarate / citrate/isocitrate / cytidine / dATP / dGMP/AMP / fumarate / glucose-1/6-phosphate / glycerate / guanine / guanosine / hypoxanthine / indole / inosine / nicotinate / ornithine / phosphoenolpyruvate / pyruvate / ribose-phosphate / sarcosine/alanine / sn-glycerol-3-phosphate / succinate/methylmalonic acid / uridine / xanthosine: S2 Table Metabolomics; for Acetyllysine: metabolite Acetyllysine; for N-acetyl-L-ornithine: metabolite N-acetyl-L-ornithine; for N-carbamoyl-L-aspartate: metabolite N-carbamoyl-L-aspartate; for NADPH: metabolite NADPH; for dAMP: metabolite dAMP; for dCMP: metabolite dCMP; for dTDP: metabolite dTDP; for dTMP: metabolite dTMP; for dTTP: metabolite dTTP; for dihydroorotate: metabolite dihydroorotate; for orotate: metabolite orotate; for DLH: peptide DLH; for DLS/SDL/SID: peptide DLS/SDL/SID; for PD: peptide PD; for PEE: peptide PEE; for PVNF: peptide PVNF; for 3-phosphoglycerate: metabolite 3-phosphoglycerate; for ADP-D-glucose: metabolite ADP-D-glucose; for ATP: metabolite ATP; for CDP: metabolite CDP; for CDP / D-sedoheptulose-1/7-phosphate / GMP / Octoluse Bisphosphate / UDP / UMP / UTP / citrate/isocitrate / dGMP/AMP / fumarate / glucose-1/6-phosphate / glycerate / guanine / guanosine / inosine / pyruvate / sarcosine/alanine / succinate/methylmalonic acid / uridine / xanthosine: change in metabolite level after compound treatment; for D-sedoheptulose-1/7-phosphate: metabolite D-sedoheptulose-1/7-phosphate; for FAD: metabolite FAD; for GMP: metabolite GMP; for NAD+: metabolite NAD+; for NADP+: metabolite NADP+; for Octoluse Bisphosphate: metabolite Octoluse Bisphosphate; for Pyroglutamic acid: metabolite Pyroglutamic acid; for UDP-D-glucose: metabolite UDP-D-glucose; for UDP-D-glucuronate: metabolite UDP-D-glucuronate; for UDP-N-acetyl-glucosamine: metabolite UDP-N-acetyl-glucosamine; for UDP: metabolite UDP; for UMP: metabolite UMP; for UTP: metabolite UTP; for a-ketoglutarate: metabolite a-ketoglutarate; for citrate/isocitrate: metabolite citrate/isocitrate; for cytidine: metabolite cytidine; for dATP: metabolite dATP; for dGMP/AMP: metabolite dGMP/AMP; for fumarate: metabolite fumarate; for glucose-1/6-phosphate: metabolite glucose-1/6-phosphate; for glycerate: metabolite glycerate; for guanine: metabolite guanine; for guanosine: metabolite guanosine; for hypoxanthine: metabolite hypoxanthine; for indole: metabolite indole; for inosine: metabolite inosine; for 2_3-Diphosphoglyceric acid / 4-phosphopantothenate / 6-phospho-D-gluconate / FMN / IMP / Pyrophosphate / Sedoheptoluse bisphosphate / cyclic-AMP / glutathione disulfide / lactate / myo-inositol: metabolite level change after treatment; for nicotinate: metabolite nicotinate; for ornithine: metabolite ornithine; for phosphoenolpyruvate: metabolite phosphoenolpyruvate; for pyruvate: metabolite pyruvate; for ribose-phosphate: metabolite ribose-phosphate; for sarcosine/alanine: metabolite sarcosine/alanine; for sn-glycerol-3-phosphate: metabolite sn-glycerol-3-phosphate; for succinate/methylmalonic acid: metabolite succinate/methylmalonic acid; for uridine: metabolite uridine; for xanthosine: metabolite xanthosine
P. falciparum = assay: EC50 listed in S2 Table Metabolomics (used to set the concentration tested); format: cell-based; conditions: Plasmodium falciparum; EC50 used for Factor_XEC50 in metabolomics; read-out: EC50_nM

## CCOC(=O)c1c(NC(=O)c2ccccc2)sc2c(O)c(CN(CC)CC)ccc12 [MMV665831]
[1]
  Acetyllysine: -3.559
  N-acetyl-L-ornithine: -2.775
  N-carbamoyl-L-aspartate: -1.992
  NADPH: 1.923
  dAMP: -1.503
  dCMP: -0.7769
  dTDP: -0.143
  dTMP: 0.09088
  dTTP: -0.5361
  dihydroorotate: -1.759
  orotate: -1.534
  DLH: -5.287
  DLS/SDL/SID: -4.31
  PD: -4.8541
  PEE: -3.834
  PVNF: -4.964
  3-phosphoglycerate: -0.2896
  ADP-D-glucose: -0.2463
  ATP: 0.0783
  CDP: 0.9119
  D-sedoheptulose-1/7-phosphate: 0.4987
  FAD: 0.1414
  GMP: -0.668
  NAD+: -0.0766
  NADP+: 0.2915
  Octoluse Bisphosphate: -0.5945
  Pyroglutamic acid: 0.1607
  UDP-D-glucose: 0.05295
  UDP-D-glucuronate: 0.02399
  UDP-N-acetyl-glucosamine: -0.03093
  UDP: 0.469
  UMP: -0.6472
  UTP: 0.04522
  a-ketoglutarate: -1.141
  citrate/isocitrate: 0.03995
  cytidine: 0.9734
  dATP: -0.7894
  dGMP/AMP: -0.1413
  fumarate: -1.268
  glucose-1/6-phosphate: -0.4706
  glycerate: -0.5026
  guanine: -0.4153
  guanosine: -0.8776
  hypoxanthine: -0.04834
  indole: -0.03305
  inosine: -0.4277
  2_3-Diphosphoglyceric acid: 0.2082
  4-phosphopantothenate: -0.594
  6-phospho-D-gluconate: -0.9918
  FMN: 0.1595
  IMP: -0.2597
  Pyrophosphate: -0.0001746
  Sedoheptoluse bisphosphate: -0.3963
  cyclic-AMP: -0.8626
  glutathione disulfide: -0.3472
  lactate: -0.3473
  myo-inositol: -0.3976
  nicotinate: -0.05954
  ornithine: -0.2486
  phosphoenolpyruvate: -0.1118
  pyruvate: -0.4191
  ribose-phosphate: -0.6703
  sarcosine/alanine: -1.233
  sn-glycerol-3-phosphate: -0.08824
  succinate/methylmalonic acid: -0.8852
  uridine: -0.3477
  xanthosine: -1.069
P. falciparum
  EC50: 205 nM

## CCOC(=O)c1cnc2c(C)cc(C)cc2c1Nc1ccc(OC)c(OC)c1 [MMV008294]
[1]
  Acetyllysine: -0.3425
  N-acetyl-L-ornithine: -0.09501
  N-carbamoyl-L-aspartate: 2.682
  NADPH: 1.75
  dAMP: 0.2089
  dCMP: -0.6198
  dTDP: -0.4672
  dTMP: -0.4876
  dTTP: -1.144
  dihydroorotate: 3.3871
  orotate: -0.7416
  DLH: -0.5675
  DLS/SDL/SID: -0.4346
  PD: -0.1287
  PEE: -0.648
  PVNF: -0.7723
  3-phosphoglycerate: -0.683
  ADP-D-glucose: -0.352
  ATP: -0.07176
  CDP: -0.1705
  D-sedoheptulose-1/7-phosphate: -0.3446
  FAD: 0.0322
  GMP: -0.1695
  NAD+: -0.3043
  NADP+: -0.3797
  Octoluse Bisphosphate: -0.4297
  Pyroglutamic acid: 0.3043
  UDP-D-glucose: -0.27
  UDP-D-glucuronate: -0.2831
  UDP-N-acetyl-glucosamine: -0.5063
  UDP: -0.5787
  UMP: -1.283
  UTP: -1.136
  a-ketoglutarate: -0.236
  citrate/isocitrate: 0.7822
  cytidine: 0.0959
  dATP: 1.0046
  dGMP/AMP: -0.5258
  fumarate: -0.9618
  glucose-1/6-phosphate: 0.01885
  glycerate: 0.4536
  guanine: 0.3469
  guanosine: 2.083
  hypoxanthine: 0.2152
  indole: 0.4569
  inosine: 0.05445
  2_3-Diphosphoglyceric acid: -0.768
  4-phosphopantothenate: -0.7166
  6-phospho-D-gluconate: -0.1153
  FMN: 0.06908
  IMP: -0.2706
  Pyrophosphate: -0.2511
  Sedoheptoluse bisphosphate: -0.4052
  cyclic-AMP: -0.1956
  glutathione disulfide: -0.2281
  lactate: 0.2967
  myo-inositol: 0.2424
  nicotinate: 0.04647
  ornithine: -0.4808
  phosphoenolpyruvate: -0.6158
  pyruvate: 0.09912
  ribose-phosphate: -0.7165
  sarcosine/alanine: -0.5269
  sn-glycerol-3-phosphate: -0.7886
  succinate/methylmalonic acid: 0.008672
  uridine: -0.03724
  xanthosine: 0.1462
P. falciparum
  EC50: 232 nM

## CCOC(=O)c1ccc2nc(-c3ccccc3)cc(O)c2c1 [MMV006457]
[1]
  Acetyllysine: -0.3384
  N-acetyl-L-ornithine: -0.3139
  N-carbamoyl-L-aspartate: 4.351
  NADPH: 0.6352
  dAMP: -0.4724
  dCMP: -0.3312
  dTDP: -1.515
  dTMP: -1.363
  dTTP: -1.304
  dihydroorotate: 4.958
  orotate: -1.367
  DLH: -0.4882
  DLS/SDL/SID: -0.4763
  PD: 0.2786
  PEE: -0.4235
  PVNF: -0.7922
  3-phosphoglycerate: 0.07595
  ADP-D-glucose: 0.02112
  ATP: 0.06279
  CDP: -1.282
  D-sedoheptulose-1/7-phosphate: -0.2959
  FAD: 0.202
  GMP: 0.5528
  NAD+: 0.1474
  NADP+: -0.1781
  Octoluse Bisphosphate: -0.2401
  Pyroglutamic acid: 0.01503
  UDP-D-glucose: 0.02564
  UDP-D-glucuronate: -0.1377
  UDP-N-acetyl-glucosamine: -0.1506
  UDP: -1.814
  UMP: -1.819
  UTP: -1.644
  a-ketoglutarate: -0.2281
  citrate/isocitrate: -0.877
  cytidine: 0.9143
  dATP: 0.2755
  dGMP/AMP: -0.2048
  fumarate: 0.4222
  glucose-1/6-phosphate: 0.1449
  glycerate: -0.03038
  guanine: 0.7811
  guanosine: 0.4264
  hypoxanthine: 0.2443
  indole: 0.3097
  inosine: 0.319
  2_3-Diphosphoglyceric acid: -0.1036
  4-phosphopantothenate: -0.4551
  6-phospho-D-gluconate: 0.1425
  FMN: -0.04566
  IMP: 0.4558
  Pyrophosphate: 0.1188
  Sedoheptoluse bisphosphate: -0.2455
  cyclic-AMP: -0.04029
  glutathione disulfide: 0.1448
  lactate: 0.2927
  myo-inositol: -0.1285
  nicotinate: 0.07641
  ornithine: 0.3647
  phosphoenolpyruvate: -0.1372
  pyruvate: -0.1462
  ribose-phosphate: 0.3187
  sarcosine/alanine: 0.6115
  sn-glycerol-3-phosphate: 0.3451
  succinate/methylmalonic acid: -0.4755
  uridine: -0.2838
  xanthosine: -0.0194
P. falciparum
  EC50: 118 nM
